Laboratory results reported in patent US5358951A, “Angiotensin II receptor blocking 2, 3, 6 substituted quinazolinones” (American Cyanamid Company, priority 1993, dated 1994).

Test system: vasopressor response of angiotensin II
Test: AII Challenge: antagonism of angiotensin II vasopressor response
Format: in vivo
Conditions: for inhibition in vivo at 3 mg/kg / inhibition in vivo at 5 mg/kg: Rattus norvegicus; for inhibition in vivo at 3 mg/kg: iv; for inhibition in vivo at 5 mg/kg: po
In short: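 Percent antagonism is based on the systolic blood pressure rise (mmHg) to i.v. angiotensin II at 0.05 and 0.1 ug/kg. Each rat's own predose response was taken as 100%. Challenges were repeated from 30 to 300 min after i.v., i.p. or oral compound in cannulated conscious male SHR, 16-20 weeks old.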

SMILES: CCCCc1nc2ccc(C3ON4CCCC4C3C(=O)OCC)cc2c(=O)n1Cc1ccc(-c2ccccc2-c2nnn[nH]2)cc1 (stereo not shown) [Example 62, Ethyl 2-[2-butyl-3,4-dihydro-4-oxo-3-[[2'-(1H-tetrazol-5-yl)[1,1'-biphenyl]-4-yl]methyl]-6quinazolinyl]hexahydro-pyrrolo[1,2-b]isoxazole3-carboxylate]
- Response Average Change (3 mg/kg I.V., AII 0.05 mcg/kg IV, 30 min post dose): 14 mmHg
- Response Average Change (3 mg/kg I.V., AII 0.05 mcg/kg IV, 60 min post dose): 18 mmHg
- Response Average Change (3 mg/kg I.V., AII 0.05 mcg/kg IV, 90 min post dose): 30 mmHg
- Response Average Change (3 mg/kg I.V., AII 0.05 mcg/kg IV, 120 min post dose): 25 mmHg
- Response Average Change (3 mg/kg I.V., AII 0.05 mcg/kg IV, 180 min post dose): 33.5 mmHg
- Response Average Change (3 mg/kg I.V., AII 0.1 mcg/kg IV, 30 min post dose): 10 mmHg
- Response Average Change (3 mg/kg I.V., AII 0.1 mcg/kg IV, 60 min post dose): 36 mmHg
- Response Average Change (3 mg/kg I.V., AII 0.1 mcg/kg IV, 90 min post dose): 40 mmHg
- Response Average Change (3 mg/kg I.V., AII 0.1 mcg/kg IV, 120 min post dose): 35 mmHg
- Response Average Change (3 mg/kg I.V., AII 0.1 mcg/kg IV, 180 min post dose): 35 mmHg
- Response Average Change (5 mg/kg P.O., AII 0.05 mcg/kg IV, 30 min post dose): 22.5 mmHg
- Response Average Change (5 mg/kg P.O., AII 0.05 mcg/kg IV, 60 min post dose): 37.5 mmHg
- Response Average Change (5 mg/kg P.O., AII 0.05 mcg/kg IV, 120 min post dose): 40 mmHg
- Response Average Change (5 mg/kg P.O., AII 0.05 mcg/kg IV, 180 min post dose): 25 mmHg
- Response Average Change (5 mg/kg P.O., AII 0.05 mcg/kg IV, 240 min post dose): 40 mmHg
- Response Average Change (5 mg/kg P.O., AII 0.1 mcg/kg IV, 30 min post dose): 43.5 mmHg
- Response Average Change (5 mg/kg P.O., AII 0.1 mcg/kg IV, 60 min post dose): 43.5 mmHg
- Response Average Change (5 mg/kg P.O., AII 0.1 mcg/kg IV, 90 min post dose): 45 mmHg
- Response Average Change (5 mg/kg P.O., AII 0.1 mcg/kg IV, 120 min post dose): 45 mmHg
- Response Average Change (5 mg/kg P.O., AII 0.1 mcg/kg IV, 180 min post dose): 47.5 mmHg
- Response Average Change (5 mg/kg P.O., AII 0.1 mcg/kg IV, 240 min post dose): 50 mmHg
- inhibition in vivo at 3 mg/kg (0.5 h, 3 mg/kg I.V., AII 0.05 mcg/kg IV, 30 min post dose): 61%
- inhibition in vivo at 3 mg/kg (0.5 h, 3 mg/kg I.V., AII 0.1 mcg/kg IV, 30 min post dose): 82%
- inhibition in vivo at 3 mg/kg (1 h, 3 mg/kg I.V., AII 0.05 mcg/kg IV, 60 min post dose): 49%
- inhibition in vivo at 3 mg/kg (1 h, 3 mg/kg I.V., AII 0.1 mcg/kg IV, 60 min post dose): 36%
- inhibition in vivo at 3 mg/kg (2 h, 3 mg/kg I.V., AII 0.05 mcg/kg IV, 120 min post dose): 30%
- inhibition in vivo at 3 mg/kg (2 h, 3 mg/kg I.V., AII 0.1 mcg/kg IV, 120 min post dose): 38%
- inhibition in vivo at 3 mg/kg (3 h, 3 mg/kg I.V., AII 0.05 mcg/kg IV, 180 min post dose): 6%
- inhibition in vivo at 3 mg/kg (3 h, 3 mg/kg I.V., AII 0.1 mcg/kg IV, 180 min post dose): 38%
- inhibition in vivo at 3 mg/kg ([…], 3 mg/kg I.V., AII 0.05 mcg/kg IV, 90 min post dose): 15%
- inhibition in vivo at 3 mg/kg ([…], 3 mg/kg I.V., AII 0.1 mcg/kg IV, 90 min post dose): 29%
- inhibition in vivo at 5 mg/kg (0.5 h, 5 mg/kg P.O., AII 0.05 mcg/kg IV, 30 min post dose): 44%
- inhibition in vivo at 5 mg/kg (0.5 h, 5 mg/kg P.O., AII 0.1 mcg/kg IV, 30 min post dose): -5%
- inhibition in vivo at 5 mg/kg (1 h, 5 mg/kg P.O., AII 0.05 mcg/kg IV, 60 min post dose): 6%
- inhibition in vivo at 5 mg/kg (1 h, 5 mg/kg P.O., AII 0.1 mcg/kg IV, 60 min post dose): -5%
- inhibition in vivo at 5 mg/kg (2 h, 5 mg/kg P.O., AII 0.05 mcg/kg IV, 120 min post dose): 0%
- inhibition in vivo at 5 mg/kg (2 h, 5 mg/kg P.O., AII 0.1 mcg/kg IV, 120 min post dose): -8%
- inhibition in vivo at 5 mg/kg (3 h, 5 mg/kg P.O., AII 0.05 mcg/kg IV, 180 min post dose): 38%
- inhibition in vivo at 5 mg/kg (3 h, 5 mg/kg P.O., AII 0.1 mcg/kg IV, 180 min post dose): -14%
- inhibition in vivo at 5 mg/kg (4 h, 5 mg/kg P.O., AII 0.05 mcg/kg IV, 240 min post dose): 0%
- inhibition in vivo at 5 mg/kg (4 h, 5 mg/kg P.O., AII 0.1 mcg/kg IV, 240 min post dose): -20%
- inhibition in vivo at 5 mg/kg ([…], 5 mg/kg P.O., AII 0.05 mcg/kg IV, 90 min post dose): 19%
- inhibition in vivo at 5 mg/kg ([…], 5 mg/kg P.O., AII 0.1 mcg/kg IV, 90 min post dose): -8%
